Test results published in ChEMBL document CHEMBL1201861, “Genomics of Drug Sensitity in Cancer screening data, Wellcome Trust Sanger Institute”.

Key:
COR-L279 = assay: SANGER: Inhibition of human COR-L279 cell growth in a cell viability assay.; type: functional, cell-based; conditions: Homo sapiens, COR-L279
D-542MG = assay: cells; type: functional, cell-based; conditions: Homo sapiens
Description: SANGER: Inhibition of human D-542MG cell growth in a cell viability assay.

DOK = assay: cells; type: functional, cell-based; conditions: Homo sapiens
Description: SANGER: Inhibition of human DOK cell growth in a cell viability assay.

Daoy = assay: cells; type: functional, cell-based; conditions: Homo sapiens
Description: SANGER: Inhibition of human Daoy cell growth in a cell viability assay.

Daudi = assay: cells; type: functional, cell-based, Homo sapiens; conditions: Homo sapiens, Daudi
Description: SANGER: Inhibition of human Daudi cell growth in a cell viability assay.

Detroit 562 = assay: cells; type: functional, cell-based; conditions: Homo sapiens
Description: SANGER: Inhibition of human Detroit562 cell growth in a cell viability assay.

EB2 = assay: cells; type: functional, cell-based, Homo sapiens; conditions: Homo sapiens, EB2
Description: SANGER: Inhibition of human EB2 cell growth in a cell viability assay.

EFO-21 = assay: cells; type: functional, cell-based; conditions: Homo sapiens
Description: SANGER: Inhibition of human EFO-21 cell growth in a cell viability assay.

HC-1 = assay: cells; type: functional, cell-based, Homo sapiens; conditions: Homo sapiens, HC-1
Description: SANGER: Inhibition of human HC-1 cell growth in a cell viability assay.

HCT-15 = assay: cells; type: functional, cell-based; conditions: Homo sapiens
Description: SANGER: Inhibition of human HCT-15 cell growth in a cell viability assay.

HMV-2 cell line = assay: cells; type: functional, cell-based; conditions: Homo sapiens
Description: SANGER: Inhibition of human HMV-II cell growth in a cell viability assay.

HN = assay: cells; type: functional, cell-based; conditions: Homo sapiens
Description: SANGER: Inhibition of human HN cell growth in a cell viability assay.

HSC-2 = assay: cells; type: functional, cell-based; conditions: Homo sapiens
Description: SANGER: Inhibition of human HSC-2 cell growth in a cell viability assay.

HT-29 = assay: cells; type: functional, cell-based; conditions: Homo sapiens
Description: SANGER: Inhibition of human HT-29 cell growth in a cell viability assay.

Huh-7 = assay: cells; type: functional, cell-based; conditions: Homo sapiens
Description: SANGER: Inhibition of human HuH-7 cell growth in a cell viability assay.

J82 = assay: cells; type: functional, cell-based; conditions: Homo sapiens
Description: SANGER: Inhibition of human J82 cell growth in a cell viability assay.

KMS-12-PE = assay: cells; type: functional, cell-based, Homo sapiens; conditions: Homo sapiens, KMS-12-PE
Description: SANGER: Inhibition of human KMS-12-PE cell growth in a cell viability assay.

KOSC-2 = assay: cells; type: functional, cell-based; conditions: Homo sapiens
Description: SANGER: Inhibition of human KOSC-2 cell growth in a cell viability assay.

KP-4 = assay: cells; type: functional, cell-based; conditions: Homo sapiens
Description: SANGER: Inhibition of human KP-4 cell growth in a cell viability assay.

L-540 = assay: cells; type: functional, cell-based, Homo sapiens; conditions: Homo sapiens, L-540
Description: SANGER: Inhibition of human L-540 cell growth in a cell viability assay.

LCLC-97TM1 = assay: cells; type: functional, cell-based; conditions: Homo sapiens
Description: SANGER: Inhibition of human LCLC-97TM1 cell growth in a cell viability assay.

LN-405 = assay: cells; type: functional, cell-based; conditions: Homo sapiens
Description: SANGER: Inhibition of human LN-405 cell growth in a cell viability assay.

LOUCY = assay: cells; type: functional, cell-based, Homo sapiens; conditions: Homo sapiens, LOUCY
Description: SANGER: Inhibition of human LOUCY cell growth in a cell viability assay.

LP-1 = assay: cells; type: functional, cell-based, Homo sapiens; conditions: Homo sapiens, LP-1
Description: SANGER: Inhibition of human LP-1 cell growth in a cell viability assay.

LoVo = assay: cells; type: functional, cell-based; conditions: Homo sapiens
Description: SANGER: Inhibition of human LoVo cell growth in a cell viability assay.

MCF7 = assay: cells; type: functional, cell-based; conditions: Homo sapiens
Description: SANGER: Inhibition of human MCF7 cell growth in a cell viability assay.

MDA-MB-453 = assay: cells; type: functional, cell-based; conditions: Homo sapiens
Description: SANGER: Inhibition of human MDA-MB-453 cell growth in a cell viability assay.

ME-180 = assay: cells; type: functional, cell-based; conditions: Homo sapiens
Description: SANGER: Inhibition of human ME-180 cell growth in a cell viability assay.

NCI-H1755 = assay: cells; type: functional, cell-based; conditions: Homo sapiens
Description: SANGER: Inhibition of human NCI-H1755 cell growth in a cell viability assay.

NCI-H2087 = assay: cells; type: functional, cell-based; conditions: Homo sapiens
Description: SANGER: Inhibition of human NCI-H2087 cell growth in a cell viability assay.

NCI-H28 = assay: cells; type: functional, cell-based; conditions: Homo sapiens
Description: SANGER: Inhibition of human NCI-H28 cell growth in a cell viability assay.

NCI-H358 = assay: cells; type: functional, cell-based; conditions: Homo sapiens
Description: SANGER: Inhibition of human NCI-H358 cell growth in a cell viability assay.

NCI-H650 = assay: cells; type: functional, cell-based; conditions: Homo sapiens
Description: SANGER: Inhibition of human NCI-H650 cell growth in a cell viability assay.

NCI-H748 = assay: cells; type: functional, cell-based, Homo sapiens; conditions: Homo sapiens, NCI-H748
Description: SANGER: Inhibition of human NCI-H748 cell growth in a cell viability assay.

NCI-H810 = assay: cells; type: functional, cell-based; conditions: Homo sapiens
Description: SANGER: Inhibition of human NCI-H810 cell growth in a cell viability assay.

OAW-28 = assay: cells; type: functional, cell-based; conditions: Homo sapiens
Description: SANGER: Inhibition of human OAW-28 cell growth in a cell viability assay.

Panc1005 = assay: cells; type: functional, cell-based; conditions: Homo sapiens
Description: SANGER: Inhibition of human PANC-10-05 cell growth in a cell viability assay.

PF-382 = assay: cells; type: functional, cell-based, Homo sapiens; conditions: Homo sapiens, PF-382
Description: SANGER: Inhibition of human PF-382 cell growth in a cell viability assay.

RCM-1 = assay: cells; type: functional, cell-based; conditions: Homo sapiens
Description: SANGER: Inhibition of human RCM-1 cell growth in a cell viability assay.

RD = assay: cells; type: functional, cell-based; conditions: Homo sapiens
Description: SANGER: Inhibition of human RD cell growth in a cell viability assay.

RERF-LC-MS = assay: cells; type: functional, cell-based; conditions: Homo sapiens
Description: SANGER: Inhibition of human RERF-LC-MS cell growth in a cell viability assay.

SIMA = assay: cells; type: functional, cell-based, Homo sapiens; conditions: Homo sapiens, SIMA
Description: SANGER: Inhibition of human SIMA cell growth in a cell viability assay.

SK-LU-1 = assay: cells; type: functional, cell-based; conditions: Homo sapiens
Description: SANGER: Inhibition of human SK-LU-1 cell growth in a cell viability assay.

SN12C = assay: cells; type: functional, cell-based; conditions: Homo sapiens
Description: SANGER: Inhibition of human SN12C cell growth in a cell viability assay.

SNU-387 = assay: cells; type: functional, cell-based; conditions: Homo sapiens
Description: SANGER: Inhibition of human SNU-387 cell growth in a cell viability assay.

SW1417 = assay: cells; type: functional, cell-based; conditions: Homo sapiens
Description: SANGER: Inhibition of human SW1417 cell growth in a cell viability assay.

SW1463 = assay: cells; type: functional, cell-based; conditions: Homo sapiens
Description: SANGER: Inhibition of human SW1463 cell growth in a cell viability assay.

SW1573 = assay: cells; type: functional, cell-based; conditions: Homo sapiens
Description: SANGER: Inhibition of human SW1573 cell growth in a cell viability assay.

SW1710 = assay: cells; type: functional, cell-based; conditions: Homo sapiens
Description: SANGER: Inhibition of human SW1710 cell growth in a cell viability assay.

23132-87 = assay: cells; type: functional, cell-based; conditions: Homo sapiens
Description: SANGER: Inhibition of human 23132-87 cell growth in a cell viability assay.

ACHN = assay: cells; type: functional, cell-based; conditions: Homo sapiens
Description: SANGER: Inhibition of human ACHN cell growth in a cell viability assay.

BC-3 = assay: cells; type: functional, cell-based, Homo sapiens; conditions: Homo sapiens, BC-3
Description: SANGER: Inhibition of human BC-3 cell growth in a cell viability assay.

BFTC-909 = assay: cells; type: functional, cell-based; conditions: Homo sapiens
Description: SANGER: Inhibition of human BFTC-909 cell growth in a cell viability assay.

CA46 = assay: cells; type: functional, cell-based, Homo sapiens; conditions: Homo sapiens, CA46
Description: SANGER: Inhibition of human CA46 cell growth in a cell viability assay.

CAL-39 = assay: cells; type: functional, cell-based; conditions: Homo sapiens
Description: SANGER: Inhibition of human CAL-39 cell growth in a cell viability assay.

CAL-51 = assay: cells; type: functional, cell-based; conditions: Homo sapiens
Description: SANGER: Inhibition of human CAL-51 cell growth in a cell viability assay.

CAL-72 = assay: cells; type: functional, cell-based; conditions: Homo sapiens
Description: SANGER: Inhibition of human CAL-72 cell growth in a cell viability assay.

THP-1 = assay: cells; type: functional, cell-based, Homo sapiens; conditions: Homo sapiens, THP-1
Description: SANGER: Inhibition of human THP-1 cell growth in a cell viability assay.

YAPC = assay: cells; type: functional, cell-based; conditions: Homo sapiens
Description: SANGER: Inhibition of human YAPC cell growth in a cell viability assay.

CAPAN-1 = assay: cells; type: functional, cell-based; conditions: Homo sapiens
Description: SANGER: Inhibition of human CAPAN-1 cell growth in a cell viability assay.

COLO-678 = assay: cells; type: functional, cell-based; conditions: Homo sapiens
Description: SANGER: Inhibition of human COLO-678 cell growth in a cell viability assay.

NCI-H1573 = assay: cells; type: functional, cell-based; conditions: Homo sapiens
Description: SANGER: Inhibition of human NCI-H1573 cell growth in a cell viability assay.

## COC(=O)[C@H](CCSC)NC(=O)c1ccc(NC[C@@H](N)CS)cc1-c1ccccc1
COR-L279
  IC50: > 1020 nM
D-542MG
  IC50: > 1020 nM
DOK
  IC50: > 1020 nM
Daoy
  IC50: > 1020 nM
Daudi
  IC50: > 1020 nM
Detroit 562
  IC50: > 1020 nM
EB2
  IC50: > 1020 nM
EFO-21
  IC50: > 1020 nM
HC-1
  IC50: > 1020 nM
HCT-15
  IC50: > 1020 nM
HMV-2 cell line
  IC50: > 1020 nM
HN
  IC50: > 1020 nM
HSC-2
  IC50: > 1020 nM
HT-29
  IC50: > 1020 nM
Huh-7
  IC50: > 1020 nM
J82
  IC50: > 1020 nM
KMS-12-PE
  IC50: > 1020 nM
KOSC-2
  IC50: > 1020 nM
KP-4
  IC50: > 1020 nM
L-540
  IC50: > 1020 nM
LCLC-97TM1
  IC50: > 1020 nM
LN-405
  IC50: > 1020 nM
LOUCY
  IC50: > 1020 nM
LP-1
  IC50: > 1020 nM
LoVo
  IC50: > 1020 nM
MCF7
  IC50: > 1020 nM
MDA-MB-453
  IC50: > 1020 nM
ME-180
  IC50: > 1020 nM
NCI-H1755
  IC50: > 1020 nM
NCI-H2087
  IC50: > 1020 nM
NCI-H28
  IC50: > 1020 nM
NCI-H358
  IC50: > 1020 nM
NCI-H650
  IC50: > 1020 nM
NCI-H748
  IC50: > 1020 nM
NCI-H810
  IC50: > 1020 nM
OAW-28
  IC50: > 1020 nM
Panc1005
  IC50: > 1020 nM
PF-382
  IC50: > 1020 nM
RCM-1
  IC50: > 1020 nM
RD
  IC50: > 1020 nM
RERF-LC-MS
  IC50: > 1020 nM
SIMA
  IC50: > 1020 nM
SK-LU-1
  IC50: > 1020 nM
SN12C
  IC50: > 1020 nM
SNU-387
  IC50: > 1020 nM
SW1417
  IC50: > 1020 nM
SW1463
  IC50: > 1020 nM
SW1573
  IC50: > 1020 nM
SW1710
  IC50: > 1020 nM
23132-87
  IC50: > 1020 nM
ACHN
  IC50: > 1020 nM
BC-3
  IC50: > 1020 nM
BFTC-909
  IC50: > 1020 nM
CA46
  IC50: > 1020 nM
CAL-39
  IC50: > 1020 nM
CAL-51
  IC50: > 1020 nM
CAL-72
  IC50: > 1020 nM
THP-1
  IC50: > 1020 nM
YAPC
  IC50: > 1020 nM
CAPAN-1
  IC50: > 1020 nM
COLO-678
  IC50: > 1020 nM

## O=C1NC(=O)c2c1c(-c1ccccc1Cl)cc1[nH]c3ccc(O)cc3c21
DOK
  IC50: 1240 nM
Daoy
  IC50: > 2000 nM
Detroit 562
  IC50: > 2000 nM
EFO-21
  IC50: > 2000 nM
HMV-2 cell line
  IC50: > 2000 nM
HN
  IC50: 1300 nM
HSC-2
  IC50: > 2000 nM
HT-29
  IC50: > 2000 nM
Huh-7
  IC50: > 2000 nM
J82
  IC50: > 2000 nM
KOSC-2
  IC50: > 2000 nM
KP-4
  IC50: > 2000 nM
LCLC-97TM1
  IC50: > 2000 nM
LN-405
  IC50: > 2000 nM
LoVo
  IC50: > 2000 nM
MCF7
  IC50: > 2000 nM
MDA-MB-453
  IC50: > 2000 nM
ME-180
  IC50: > 2000 nM
NCI-H1573
  IC50: > 2000 nM
NCI-H1755
  IC50: > 2000 nM
NCI-H2087
  IC50: > 2000 nM
NCI-H28
  IC50: > 2000 nM
NCI-H358
  IC50: > 2000 nM
NCI-H650
  IC50: > 2000 nM
NCI-H810
  IC50: > 2000 nM
OAW-28
  IC50: > 2000 nM
Panc1005
  IC50: > 2000 nM
RCM-1
  IC50: > 2000 nM
RD
  IC50: > 2000 nM
RERF-LC-MS
  IC50: > 2000 nM
SK-LU-1
  IC50: 1000 nM
SN12C
  IC50: > 2000 nM
SNU-387
  IC50: > 2000 nM
SW1417
  IC50: > 2000 nM
SW1463
  IC50: > 2000 nM
SW1573
  IC50: > 2000 nM
SW1710
  IC50: > 2000 nM
ACHN
  IC50: 542 nM
BFTC-909
  IC50: > 2000 nM
CAL-39
  IC50: > 2000 nM
CAL-51
  IC50: > 2000 nM
CAL-72
  IC50: 1820 nM
YAPC
  IC50: > 2000 nM
CAPAN-1
  IC50: > 2000 nM
COLO-678
  IC50: > 2000 nM
